Source: the NIST ThermoML archive (doi:10.1021/je900807v)
± gives the expanded uncertainty stated by the source.

Key:
[1] = 298.15 K, 101.33 kPa, Liquid
[2] = refractive index (Na D-line) (dimensionless); settings: 298.15 K; 101.33 kPa; Liquid; Standard Abbe refractometry
[3] = xn = mol fraction of the nth substance listed; settings: 298.15 K, 101 kPa, Liquid

CCOS(=O)(=O)[O-].CC[n+]1cccc(C)c1 [1-ethyl-3-methylpyridinium ethylsulfate]
mass density ([1]; Vibrating tube method): 1219.61 ± 0.42 kg/m3 | refractive index [2]: 1.50591 ± 0.0007

c1ccccc1 [benzene]
mass density [1]: 873.57 ± 0.17 kg/m3 | refractive index [2]: 1.49774 ± 0.00068

c1ccccc1 [benzene] + CC1CCCCC1
mass density ([3]; x2 = 0): 873.57 ± 0.17 kg/m3

CCc1ccccc1 [ethylbenzene]
mass density [1]: 862.51 ± 0.18 kg/m3 | refractive index [2]: 1.49304 ± 0.00068

CCc1ccccc1 [ethylbenzene] + CC1CCCCC1
mass density ([3]; x2 = 0): 862.51 ± 0.18 kg/m3

CC1CCCCC1 [methylcyclohexane]
mass density [1]: 765.02 ± 0.36 kg/m3 | refractive index [2]: 1.42062 ± 0.0007

CC1CCCCC1 [methylcyclohexane] + CCc1ccccc1
mass density ([3]; x1 = 0.0494): 857.22 ± 0.19 kg/m3 | mass density ([3]; x1 = 0.0975): 852.13 ± 0.19 kg/m3 | mass density ([3]; x1 = 0.1983): 841.55 ± 0.21 kg/m3 | mass density ([3]; x1 = 0.2981): 831.2 ± 0.23 kg/m3 | mass density ([3]; x1 = 0.4008): 820.93 ± 0.25 kg/m3 | mass density ([3]; x1 = 0.5005): 811.01 ± 0.26 kg/m3 | mass density ([3]; x1 = 0.6001): 801.41 ± 0.28 kg/m3 | mass density ([3]; x1 = 0.7006): 792.06 ± 0.3 kg/m3 | mass density ([3]; x1 = 0.7952): 783.15 ± 0.32 kg/m3 | mass density ([3]; x1 = 0.8949): 774.23 ± 0.34 kg/m3 | mass density ([3]; x1 = 0.9495): 769.34 ± 0.35 kg/m3 | mass density ([3]; x1 = 1): 765.02 ± 0.36 kg/m3

CC1CCCCC1 [methylcyclohexane] + Cc1ccccc1
mass density ([3]; x1 = 0.05): 855.9 ± 0.18 kg/m3 | mass density ([3]; x1 = 0.0998): 849.91 ± 0.19 kg/m3 | mass density ([3]; x1 = 0.198): 838.24 ± 0.21 kg/m3 | mass density ([3]; x1 = 0.2951): 827.41 ± 0.22 kg/m3 | mass density ([3]; x1 = 0.3968): 816.83 ± 0.24 kg/m3 | mass density ([3]; x1 = 0.4959): 806.9 ± 0.26 kg/m3 | mass density ([3]; x1 = 0.5973): 797.45 ± 0.28 kg/m3 | mass density ([3]; x1 = 0.697): 788.64 ± 0.3 kg/m3 | mass density ([3]; x1 = 0.7954): 780.42 ± 0.32 kg/m3 | mass density ([3]; x1 = 0.8932): 772.71 ± 0.34 kg/m3 | mass density ([3]; x1 = 0.9487): 768.66 ± 0.35 kg/m3 | mass density ([3]; x1 = 1): 765.02 ± 0.36 kg/m3

CC1CCCCC1 [methylcyclohexane] + c1ccccc1
mass density ([3]; x1 = 0.0504): 865.01 ± 0.18 kg/m3 | mass density ([3]; x1 = 0.099): 857.13 ± 0.19 kg/m3 | mass density ([3]; x1 = 0.1998): 841.92 ± 0.2 kg/m3 | mass density ([3]; x1 = 0.2978): 829.01 ± 0.22 kg/m3 | mass density ([3]; x1 = 0.3991): 816.54 ± 0.24 kg/m3 | mass density ([3]; x1 = 0.4993): 805.76 ± 0.26 kg/m3 | mass density ([3]; x1 = 0.598): 796.03 ± 0.28 kg/m3 | mass density ([3]; x1 = 0.6991): 787.22 ± 0.3 kg/m3 | mass density ([3]; x1 = 0.7981): 779.31 ± 0.32 kg/m3 | mass density ([3]; x1 = 0.8961): 772.04 ± 0.34 kg/m3 | mass density ([3]; x1 = 0.9523): 768.25 ± 0.35 kg/m3 | mass density ([3]; x1 = 1): 765.02 ± 0.36 kg/m3

Cc1ccccc1 [toluene]
mass density [1]: 862.17 ± 0.18 kg/m3 | refractive index [2]: 1.49399 ± 0.00068

Cc1ccccc1 [toluene] + CC1CCCCC1
mass density ([3]; x2 = 0): 862.17 ± 0.18 kg/m3
